Source: PubChem BioAssay (NCI)
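Assay format: 96-well plates, 48-hour exposure. Here, GI50 denotes the concentration required for 50% inhibition of growth. The concentration for full growth arrest is given as TGI.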

Assays:
Experiment in all cases: DTP human tumour cell line panel, 48 h
MCF7 breast = tested on: MCF7 breast
HCT-15 colon = tested on: HCT-15 colon
HCT-116 colon = tested on: HCT-116 colon
U251 CNS = tested on: U251 CNS
OVCAR-8 ovarian = tested on: OVCAR-8 ovarian
PC-3 prostate = tested on: PC-3 prostate
NCI-H226 lung = tested on: NCI-H226 lung
OVCAR-3 ovarian = tested on: OVCAR-3 ovarian
SK-MEL-2 melanoma = tested on: SK-MEL-2 melanoma
SK-OV-3 ovarian = tested on: SK-OV-3 ovarian

| SMILES | GI50 (MCF7 breast) | TGI (MCF7 breast) | GI50 (HCT-15 colon) | TGI (HCT-15 colon) | GI50 (HCT-116 colon) | TGI (HCT-116 colon) | GI50 (U251 CNS) | TGI (U251 CNS) | GI50 (OVCAR-8 ovarian) | TGI (OVCAR-8 ovarian) | GI50 (PC-3 prostate) | TGI (PC-3 prostate) | GI50 (NCI-H226 lung) | TGI (NCI-H226 lung) | GI50 (OVCAR-3 ovarian) | TGI (OVCAR-3 ovarian) | GI50 (SK-MEL-2 melanoma) | TGI (SK-MEL-2 melanoma) | GI50 (SK-OV-3 ovarian) | TGI (SK-OV-3 ovarian) |
| --- | --- | --- | --- | --- | --- | --- | --- | --- | --- | --- | --- | --- | --- | --- | --- | --- | --- | --- | --- | --- |
| CN(C)c1ccc(C(=C2C=CC(=[N+](C)C)C=C2)c2ccccc2Cl)cc1 | 0.237 µM | 0.899 µM | 0.717 µM | 4.96 µM | 0.155 µM | 0.605 µM | 0.127 µM | 1.14 µM | 0.306 µM | 1.66 µM | 0.242 µM | 0.995 µM | 0.43 µM | 2 µM | 0.261 µM | 0.699 µM | 0.339 µM | 0.899 µM | 0.314 µM | 0.992 µM |
| N=C(N)SCc1ccc([N+](=O)[O-])cc1[N+](=O)[O-] | 2.04 µM | 16.9 µM | 5.01 µM | 19.4 µM | 3.53 µM | 13.6 µM | 19.2 µM | > 100 µM | 14.3 µM | 75.7 µM | 13.4 µM | 87.2 µM | 25.3 µM | 62.4 µM | 4.54 µM | 15.2 µM | 4.5 µM | 16.6 µM | 20.8 µM | 53.7 µM |
| COC(=O)/C(=C\c1c(-c2ccccc2)[nH]c2ccccc12)S(C)(=O)=O | 2.92 µM | 18.2 µM | 2.35 µM | 12.1 µM | 4.2 µM | 21.4 µM | 3.62 µM | 18.3 µM | 6.29 µM | > 100 µM | 4.16 µM | > 100 µM | 4.99 µM | 64.5 µM | 1.92 µM | 3.97 µM | 11.8 µM | 28.4 µM | 12.1 µM | 75.5 µM |
| CC(OC(=O)N(N(CCCl)S(C)(=O)=O)S(C)(=O)=O)c1ccc([N+](=O)[O-])cc1 (centres undefined) | 58 µM | > 100 µM | > 100 µM | > 100 µM | > 66 µM | > 100 µM | 42.5 µM | > 100 µM | > 100 µM | > 100 µM | > 66.7 µM | > 100 µM | 29.1 µM | 79.3 µM | 42.5 µM | > 100 µM | > 100 µM | > 100 µM | > 100 µM | > 100 µM |
| FC(F)(F)c1[nH]ncc1-c1nc2ccc3[nH]ncc3c2c2c1CCCC2 | 1.67 µM | 10.1 µM | 2.28 µM | 10.1 µM | 0.523 µM | 10.6 µM | 2.56 µM | 7.5 µM | 2.63 µM | 11.9 µM | 2.08 µM | 8.73 µM | 2.26 µM | 12.4 µM | 2.66 µM | 6.86 µM | 1.64 µM | 3.61 µM | 1.79 µM | 5.83 µM |
| CN(C)CCOc1ccc(-c2cc(-c3ccc4c(c3)CC/C4=N\O)c(-c3ccncc3)o2)cc1 | 5.02 µM | 10.1 µM | 3.35 µM | 7.09 µM | 1.29 µM | 4.5 µM | 2.41 µM | 5.55 µM | 3.97 µM | 9 µM | 4.16 µM | 8.22 µM | 4.78 µM | 9.7 µM | 4.38 µM | 8.16 µM | 0.281 µM | 3.54 µM | 4.08 µM | 7.51 µM |
| Oc1c(CNCCNCc2cc(Cl)cc(Cc3ccccc3)c2O)cc(Cl)cc1Cc1ccccc1 | 0.291 µM | 47.7 µM | 0.139 µM | 14.9 µM | 0.398 µM | 13.2 µM | 0.297 µM | 14.4 µM | 0.474 µM | > 100 µM | 0.62 µM | > 100 µM | 0.438 µM | 15.5 µM | 0.428 µM | 31.1 µM | 1.82 µM | 23.9 µM | 0.462 µM | > 100 µM |
| CC(=O)/C(=C\c1c(-c2ccccc2)[nH]c2ccccc12)S(=O)(=O)c1ccccc1 | 0.903 µM | 9.36 µM | 0.834 µM | 3.21 µM | 0.727 µM | 2 µM | 1.2 µM | 3.62 µM | 2.51 µM | 9.89 µM | 2.44 µM | 15 µM | 1.92 µM | 5.21 µM | 1.54 µM | 4.52 µM | 1.39 µM | 5.3 µM | 2.81 µM | 19.4 µM |
| CCN(Cc1cccc(F)c1F)c1ccc(CO)c(Cl)c1 | 0.157 µM | 12.6 µM | 12.4 µM | 36.2 µM | 0.067 µM | 11.2 µM | 0.63 µM | 22.2 µM | 14.2 µM | 48.3 µM | 15.4 µM | 37.2 µM | 0.0318 µM | 0.141 µM | 0.304 µM | 1.28 µM | 4.68 µM | 22.6 µM | 8.3 µM | 27.4 µM |
| Clc1ccc(N2CCC(N3CCCC3)CC2)cc1-c1nc2ccccc2[nH]1 | 15.8 µM | 30.7 µM | 18.7 µM | 38.5 µM | 13.1 µM | 27.5 µM | 16.7 µM | 35.1 µM | 22.5 µM | 60.6 µM | 30.9 µM | > 100 µM | 18.4 µM | 43.8 µM | 17.8 µM | 40.4 µM | 19.3 µM | 36.6 µM | 24.5 µM | > 67.9 µM |
| Nc1cc2nc3ccccc3oc-2cc1=O | 1.35 µM | 3.33 µM | 0.641 µM | – | 6.1 µM | > 68 µM | 1.73 µM | 12.3 µM | 19.7 µM | > 100 µM | 16.7 µM | > 100 µM | 2.57 µM | 9.2 µM | 3.54 µM | 29.3 µM | 6.62 µM | 25.7 µM | 19.7 µM | > 61.4 µM |
| CSc1nc(N)c2c(n1)NC(c1ccccc1)C1CCc3ccccc3C1=N2 (centres undefined) | 52 µM | > 100 µM | 7.61 µM | > 100 µM | 7.39 µM | > 100 µM | > 100 µM | > 100 µM | 5.39 µM | > 100 µM | 2.56 µM | > 100 µM | 42.3 µM | > 100 µM | 6.85 µM | > 100 µM | 4.13 µM | 8.54 µM | > 100 µM | > 100 µM |
